Assay results from ChEMBL document CHEMBL5331089, “Mucormycosis: A hidden mystery of fungal infection, possible diagnosis, treatment and development of new therapeutic agents” (Eur J Med Chem, 2023).
Converted amounts (≈) assume the structure as drawn.

Legend:
[1] = system: Syncephalastrum racemosum; experiment: Antifungal activity against Syncephalastrum racemosum RCMB 016001 assessed as zone of inhibition measured after 24 hrs; format: functional
[2] = Antifungal activity against Rhizopus microsporus var. oligosporus NRRL 514 assessed as fungal growth inhibition measured after 48 hrs by microtitre plate reader assay; format: functional
Lichtheimia corymbifera [3] = experiment: Antifungal activity against Absidia corymbifera SZMC 2010 assessed as fungal growth inhibition measured after 48 hrs by microtitre plate reader assay; format: functional
Rhizomucor pusillus [4] = experiment: Antifungal activity against Rhizomucor pusillus CN(M)231 assessed as fungal growth inhibition measured after 48 hrs by microtitre plate reader assay; format: functional
Mucorales = experiment: Antifungal activity against Mucorales assessed as fungal growth inhibition measured 24 to 48 hrs; format: functional; details: time 24-48 hrs
Rhizomucor pusillus [5] = experiment: Antifungal activity against Rhizomucor pusillus assessed as fungal growth inhibition measured at 36 to 48 hrs; format: functional; details: time 36-48 hrs
Rhizopus homothallicus = experiment: Antifungal activity against Rhizopus homothallicus clinical isolate assessed as fungal growth inhibition; format: functional
Rhizopus arrhizus [6] = experiment: Antifungal activity against Rhizopus oryzae clinical isolate assessed as fungal growth inhibition; format: functional
Rhizomucor pusillus [7] = experiment: Antifungal activity against environmental and clinical isolate Rhizomucor pusillus assessed as fungal growth inhibition measured after 24 to 48 hrs by plate reader assay; format: functional; details: time 24-48 hrs
[8] = system: Syncephalastrum racemosum; experiment: Antifungal activity against Syncephalastrum racemosum SZMC 2011 assessed as fungal growth inhibition measured after 24 hrs by microtitre plate reader assay; format: functional
Mucor circinelloides [9] = experiment: Antifungal activity against Mucor circinelloides clinical isolate assessed as fungal growth inhibition; format: functional
Rhizopus arrhizus [10] = experiment: Antifungal activity against Rhizopus oryzae clinical isolate assessed as fungal growth inhibition measured after 24 to 72 hrs by microtitre plate reader analysis; format: functional; details: time 24-72 hrs
[11] = system: Cunninghamella bertholletiae; experiment: Antifungal activity against Cunninghamella bertholletiae clinical isolate assessed as fungal growth inhibition; format: functional
Rhizomucor miehei [12] = experiment: Antifungal activity against environmental and clinical isolate Rhizomucor miehei assessed as fungal growth inhibition measured after 24 to 48 hrs by plate reader assay; format: functional; details: time 24-48 hrs
Rhizopus arrhizus [13] = experiment: Antifungal activity against Rhizopus oryzae CBS 109939 assessed as fungal growth inhibition by checkerboard broth microdilution assay; format: functional
Mucor circinelloides [14] = experiment: Antifungal activity against Mucor circinelloides assessed as fungal growth inhibition measured at 36 to 48 hrs; format: functional; details: time 36-48 hrs
[15] = system: Syncephalastrum racemosum; experiment: Antifungal activity against Syncephalastrum racemosum assessed as fungal growth inhibition measured for 24 to 24 hrs by agar well diffusion assay; format: functional, organism-based
Rhizopus arrhizus [16] = experiment: Antifungal activity against Rhizopus arrhizus assessed as fungal growth inhibition; format: functional
Lichtheimia corymbifera [17] = experiment: Antifungal activity against Absidia corymbifera assessed as fungal growth inhibition; format: functional; details: read-out: MEC
Rhizopus delemar = experiment: Antifungal activity against Rhizopus delemar assessed as fungal growth inhibition; format: functional; details: read-out: MEC
Mucor indicus = experiment: Antifungal activity against Mucor indicus assessed as fungal growth inhibition; format: functional; details: read-out: MEC
Mucor circinelloides [18] = experiment: Antifungal activity against Mucor circinelloides assessed as fungal growth inhibition; format: functional; details: read-out: MEC
Rhizopus arrhizus [19] = experiment: Antifungal activity against Rhizopus oryzae assessed as fungal growth inhibition; format: functional; details: read-out: MEC
Rhizomucor miehei [20] = experiment: Antifungal activity against Rhizomucor miehei CBS 360.92 assessed as fungal growth inhibition measured after 48 hrs by microtitre plate reader assay; format: functional
Rhizopus stolonifer = experiment: Antifungal activity against Rhizopus stolonifer SZMC 11101 assessed as fungal growth inhibition measured after 24 hrs by microtitre plate reader assay; format: functional
Mycotypha africana = experiment: Antifungal activity against Mycotypha africana NRRL 2978 assessed as fungal growth inhibition measured after 24 hrs by microtitre plate reader assay; format: functional
Mucor circinelloides [21] = experiment: Antifungal activity against Mucor circinelloides MS 12 assessed as fungal growth inhibition measured after 48 hrs by plate reader assay; format: functional
Rhizopus arrhizus [22] = experiment: Antifungal activity against Rhizopus oryzae CBS 112.07 assessed as fungal growth inhibition measured after 48 hrs by microtitre plate reader assay; format: functional

OC(Cn1cncn1)(Cn1cncn1)c1ccc(F)cc1F [FLUCONAZOLE]
inhibition zone (IZ) [1]: 22 mm

CCC(C)(C)C(=O)O[C@H]1C[C@@H](C)C=C2C=C[C@H](C)[C@H](CC[C@@H](O)C[C@@H](O)CC(=O)O)[C@H]21 [TENIVASTATIN]
MIC90 [2]: 33 µg/mL (≈ 75.6 µM)
MIC90 (Lichtheimia corymbifera [3]): 11 µg/mL (≈ 25.2 µM)
MIC90 (Rhizomucor pusillus [4]): 1.2 µg/mL (≈ 2.75 µM)

CCOC(=O)N1C/C(=C\c2cc(OC)c(OC)c(OC)c2)C(=O)[C@@]2(C1)[C@H](c1cc(OC)c(OC)c(OC)c1)[C@H]1CCCN1[C@]21C(=O)Nc2ccccc21
inhibition zone (IZ) [1]: 39.46 mm

CC[C@@H]([C@H](C)O)n1ncn(-c2ccc(N3CCN(c4ccc(OC[C@@H]5CO[C@@](Cn6cncn6)(c6ccc(F)cc6F)C5)cc4)CC3)cc2)c1=O [POSACONAZOLE]
MIC (Mucorales): 1 µg/mL (≈ 1.43 µM)
MIC (Rhizomucor pusillus [5]): > 8 µg/mL

CC[C@H](C)C(=O)O[C@H]1C[C@@H](C)C=C2C=C[C@H](C)[C@H](CC[C@@H]3C[C@@H](O)CC(=O)O3)[C@H]21 [LOVASTATIN]
MIC (Rhizopus homothallicus): 40 µg/mL (≈ 98.9 µM)
MIC (Rhizopus arrhizus [6]): 32.6 µg/mL (≈ 80.5 µM)
MIC (Rhizomucor pusillus [7]): 1 µg/mL (≈ 2.47 µM)
MIC [8]: 16 µg/mL (≈ 39.6 µM)
MIC (Mucor circinelloides [9]): 16 µg/mL (≈ 39.6 µM)
MIC (Rhizopus arrhizus [10]): 128 µg/mL (≈ 316 µM)
MIC [11]: 32 µg/mL (≈ 79.1 µM)
MIC (Rhizomucor miehei [12]): 64 µg/mL (≈ 158 µM)
MIC (Rhizopus arrhizus [13]): 128 µg/mL
MIC90 (Rhizomucor pusillus [4]): 3.6 µg/mL (≈ 8.9 µM)

C[C@@H](c1ncncc1F)[C@](O)(Cn1cncn1)c1ccc(F)cc1F [VORICONAZOLE]
MIC (Rhizomucor pusillus [5]): > 8 µg/mL
MIC (Mucor circinelloides [14]): > 8 µg/mL

Cc1ccc([C@H]2[C@@]3(SC(=O)NC3=O)C3CCCN3[C@@]23C(=O)Nc2ccccc23)cc1 (stereo partly specified)
inhibition zone (IZ) [1]: 19 mm

O=C1NC(=O)[C@]2(S1)C1CCCN1[C@@]1(C(=O)Nc3ccccc31)[C@H]2c1ccccc1 (stereo partly specified)
inhibition zone (IZ) [1]: 14 mm

CCOC(=O)N1C/C(=C\c2ccc(OC)cc2)C(=O)[C@@]2(C1)[C@H](c1ccc(OC)cc1)[C@H]1CCCN1[C@]21C(=O)Nc2ccccc21
IC50 [15]: 11.3 µg/mL (≈ 18.6 µM)
MIC ([15]; time 24-24 hrs): 0.98 µg/mL (≈ 1.61 µM)

CCOC(=O)N1C/C(=C\c2ccc(Cl)cc2)C(=O)[C@@]2(C1)[C@H](c1ccc(Cl)cc1)[C@H]1CCCN1[C@]21C(=O)Nc2ccccc21
inhibition zone (IZ) [1]: 39.46 mm

Nc1c(-c2cc(Cc3ccc(COc4ccccn4)cc3)no2)ccc[n+]1COP(=O)([O-])O [FOSMANOGEPIX]
MEC (Rhizopus arrhizus [16]): 0.25 µg/mL

C[C@@H]1C[C@H]1/C=C/[C@@H]1C[C@H]1[C@@H]1C[C@H]1[C@@H]1C[C@H]1[C@@H]1C[C@H]1/C=C/C=C/C(=O)NC[C@H]1O[C@@H](N2CCC(=O)NC2=O)[C@H](O)[C@@H]1O
minimal effective concentration (Lichtheimia corymbifera [17]): ≤ 0.008 µg/mL
minimal effective concentration (Rhizopus delemar): 0.016 µg/mL
minimal effective concentration (Mucor indicus): ≤ 0.008 µg/mL
minimal effective concentration (Mucor circinelloides [18]): 0.016 µg/mL
minimal effective concentration (Rhizopus arrhizus [19]): ≤ 0.008 µg/mL

CC[C@H](C)C(=O)O[C@H]1C[C@@H](C)C=C2C=C[C@H](C)[C@H](CC[C@@H](O)C[C@@H](O)CC(=O)O)[C@H]21 [LOVASTATIN ACID]
MIC90 (Rhizomucor miehei [20]): 11 µg/mL (≈ 26 µM)
MIC90 (Lichtheimia corymbifera [3]): 11 µg/mL (≈ 26 µM)
MIC90 (Rhizomucor pusillus [4]): 11 µg/mL (≈ 26 µM)

CC(C)c1nc(N(C)S(C)(=O)=O)nc(-c2ccc(F)cc2)c1/C=C/[C@@H](O)C[C@@H](O)CC(=O)O [ROSUVASTATIN]
MIC90 (Rhizomucor miehei [20]): 11 µg/mL (≈ 22.8 µM)
MIC (Rhizopus stolonifer): 64 µg/mL (≈ 133 µM)
MIC [8]: 32 µg/mL (≈ 66.5 µM)
MIC (Mycotypha africana): 8 µg/mL (≈ 16.6 µM)
MIC90 (Lichtheimia corymbifera [3]): 33 µg/mL (≈ 68.5 µM)
MIC (Mucor circinelloides [21]): 32 µg/mL (≈ 66.5 µM)
MIC90 (Rhizopus arrhizus [22]): 96 µg/mL (≈ 199 µM)
MIC90 (Rhizomucor pusillus [4]): 11 µg/mL (≈ 22.8 µM)
